For test [1], the system named is PPARgamma ligand-binding domain (Gal4-PPARgammaLBD). In words: PPARgamma transactivation assay (Gal4-PPARgammaLBD, UASx4-TK luc reporter). In kind it is cell-based. Particulars: for PPAR: PPARgamma activating activity compared with 10 microM DPD (SN1). The source says: This is an example of a transactivation assay for determining PPAR gamma modulating activity.
The UASx4-TK-luc reporter construct (where UAS refers to “upstream activator sequence”) contains four Gal4-responsive elements. The plasmid Gal4-PPARgammaLBD encodes a Gal4-DBD-PPARgamma-LBD fusion protein (i.e. the DNA-binding domain, DBD, of Gal4 fused to the ligand-binding domain, LBD, of PPARgamma) capable of transactivating the UASx4-TK-luc reporter plasmid by binding to the UAS. The CMV-beta-galactosidase plasmid (where CMV is cytomegalovirus) is used for normalization of experimental values.
The cells were replated, typically in 24 well plates, so that at the time of transfection the cells are 50-70% confluent.
Briefly, per well in a 24 well plate, UASx4TKluc (0.2 microg) Gal4-PPARgammaLBD (or pM-hPPARgamma-LBD; 0.1 microg) and CMV-beta-galactosidase (0.05 microg) in 30 μL DMEM (free of serum and antibiotics) is mixed with 30 microL DMEM (free of serum and antibiotics) containing 1 microL metafectenein. The mixture is incubated at room temperature for 20 min to allow formation of nucleic acid-lipid complexes and then approximately 60 microL is added to each well containing the 50-60% confluent cells. […] Cells were harvested after 12-24 hours and luciferase and beta-galactosidase activities were measured according to standard protocols.
“−” means that testing was not performed.

In a further test the test system is 3T3-L1 / MEFs. Nature of the test: Adipocyte differentiation assay, induction, Oil Red O staining. In kind it is cell-based, mouse. Details: key to Adip.: 0: representing similar results to DPD; −1: representing even less adipocyte differentiation; +1: representing more adipocyte differentiation (both relative to DPD). Particulars: for Adip.: adipocyte differentiation relative to DPD (SN1), Oil Red O staining; for induction of adipocyte differentiation (red staining), in words: induction assay, Oil Red O. The protocol: This example describes an assay for determining adipocyte differention. Compounds are tested to see whether they induce adipocyte differentiation and also to see whether they inhibit adipocyte differention.
MEFs were grown in AmnioMax basal medium (Gibco) supplemented with 7.5% Amniomax supplement C-100 (Gibco), 7.5% Fetal Bovine Serum (FBS), 2 mM Glutamine, 62.5 μg/ml penicillin and 100 μg/ml Streptomycin (growth medium). At confluence, MEFs were induced to differentiation in growth medium with the addition of 1 microM dexamethasone (Sigma) 0.5 mM isobutylmethylxanthine (Sigma), 5 microg/ml insulin (Sigma) and 10 microM test compound dissolved in DMSO or DMSO alone. Medium was subsequently renewed every 48 hrs with growth media supplemented with 5 microg/ml Insulin and ligand or DMSO.
Briefly, to test compounds as inducers of adipocyte differentiation, 3T3-L1 are grown to confluence in DMEM with 10% Calf serum (CS), typically in 24 well dishes. At 2 days post confluence (day 0), cells are induced to differentiate with DMEM supplemented with 10% fetal bovine serum (FBS), 1 μM dexamethasone and the test compound ([…], 1 and 10 microM). BRL49653 (1.0 μM dissolved in 100% Me2SO) is used as a positive control. After 48 h, the cells are re-fed with DMEM containing 10% FBS supplemented with the test compound or the positive control. From day 4, cells are grown in DMEM with 10% FBS and are changed every second day until day 8. At day 8, cells are stained with Oil Red O as described below.
Cells cultured as described above are used for Oil Red staining. Dishes are washed in PBS and cells were fixed in 3.7% paraformaldehyde for 1 h and stained with oil red O as described in (Hansen et al 1999). Oil red O solution stock solution is prepared by dissolving 0.5 g of Oil Red O (Sigma) in 100 ml of isopropanol. Oil re O working solution is prepared by diluting a stock solution with water (6:4) followed by filtration.
Table II summarizes results obtained with different analogs of DPD (SN1), “0” representing similar results to DPD, “−1” representing even less adipocyte differentiation, “+1” representing more adipocyte differentiation (both relative to DPD) and “−” meaning not assayed.

The target of the next test is T1, mPPARalphaLBD (Mus musculus, UniProt P23204).
T1 construct: expressed in transfected cells
T1 sequence (P23204 239-466 limits assumed): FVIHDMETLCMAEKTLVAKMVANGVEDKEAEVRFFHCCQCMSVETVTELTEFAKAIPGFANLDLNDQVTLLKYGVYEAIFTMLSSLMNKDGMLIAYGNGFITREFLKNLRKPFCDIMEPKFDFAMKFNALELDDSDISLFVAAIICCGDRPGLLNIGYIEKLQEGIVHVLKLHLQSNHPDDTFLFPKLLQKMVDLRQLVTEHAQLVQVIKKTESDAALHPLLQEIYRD
Nature of the test: PPARalpha transactivation assay (mPPARalphaLBD). In kind it is cell-based. Here is the method:
This example describes a transactivation assay for determining PPARalpha modulating activity.
DPD and other ligands are tested for their ability to transactivate PPAR alpha essentially as described in Example 1.

This note sets out measurements from patent US20140288110A1, “PPAR MODULATORS” (EVOLVA SA, priority 2006, published 2014).

In the case of `CN(CCOc1ccc(CC2SC(=O)NC2=O)cc1)c1ccccn1` (stereo not drawn) [rosiglitazone, reference compound], the “PPAR transactivation, fold higher than with DMSO alone” value in test [1] (Gal4-PPARgammaLBD, DPD at 10 microM) was “over 40 fold”.
In the test on 3T3-L1 / MEFs, `O=C(O)CC/C=C\C[C@@H]1COC(c2cccc3ccccc23)O[C@@H]1c1ccccc1O` (stereo partly drawn) [compound 9] gave an Adip. of 0.
Still for that read-out and setting: to `CC(C)[C@H]1OC[C@@H](C/C=C\CCC(=O)O)[C@@H](c2ccccc2O)O1` [compound 20] belongs 0.
The same measure, in the same setting: to `COc1cccc([C@H]2OC[C@@H](C/C=C\CCC(=O)O)[C@@H](c3ccccc3O)O2)c1OC` (mixture of isomers) [compound 19] belongs 0; to `CCCCCC1OC[C@@H](C/C=C\CCC(=O)O)[C@@H](c2ccccc2O)O1` (stereo partly drawn) [compound 11], “+1”.
Regarding `COc1ccccc1[C@H]1OC(C)(C)OC[C@H]1C/C=C\CCCCC(=O)O` [compound 37], the PPAR result in test [1] was “Inactive”. The molecule further showed an Adip. in the test on 3T3-L1 / MEFs of 0.
As for `CC1(C)OC[C@@H](C/C=C\CCCCC(=O)O)[C@@H](c2ccccc2O)O1` [compound 36], the PPAR entry in test [1] was “Inactive”.
For the molecule `O=C(O)CC/C=C\C[C@@H]1COC(c2ccccc2-c2ccccc2)O[C@@H]1c1ccccc1O` (mixture of isomers) [compound 10], in test [1], the “PPAR gamma modulating activity, in words” value was “PPAR gamma antagonist” and the PPAR result was “Antagonist”. In addition, the Adip. with 3T3-L1 / MEFs worked out at 0.
For `O=C(O)CC/C=C\C[C@@H]1COC(c2cccc3c2OCO3)O[C@@H]1c1ccccc1O` (mixture of isomers) [compound 5], the PPAR result in test [1] was “P−”. In the test with 3T3-L1 / MEFs, this molecule had an Adip. of 0.
For `O=C(O)CC/C=C\C[C@@H]1COC(c2ccccc2F)O[C@@H]1c1ccccc1O` (mixture of isomers) [compound 4], the Adip. in the test with 3T3-L1 / MEFs stood at 0.
In the test on 3T3-L1 / MEFs, `C/C=C/CC1OC[C@@H](C/C=C\CCC(=O)O)[C@@H](c2ccccc2O)O1` (stereo partly drawn) [compound 12] had an Adip. of −1.
In the case of `O=C(O)CC/C=C\C[C@@H]1CO[C@H](c2ccccc2Cl)O[C@@H]1c1ccccc1O` [compound 1], the Adip. in the test on 3T3-L1 / MEFs is recorded as 0.
On to `O=C(O)CC/C=C\C[C@@H]1COC(c2ccccc2Cl)O[C@@H]1c1ccccc1O` (stereo partly drawn) [compound 27], for which the PPAR entry in test [1] is given as “Inactive”.
On to `O=C(O)CCC/C=C\C[C@@H]1CO[C@H](c2ccccc2Cl)O[C@@H]1c1ccccc1O` [compound 23], for which, in the test with 3T3-L1 / MEFs, the Adip. result was “+1”.
Still for that read-out and setting: then `O=C(O)CCCCCCC[C@@H]1CO[C@H](c2ccccc2Cl)O[C@@H]1c1ccccc1O` [compound 31], with 0; and `COc1ccccc1[C@H]1OC[C@@H](C/C=C\CCC(=O)O)[C@@H](c2ccccc2O)O1` [compound 18], with −1.
Turning to `O=C(O)CC/C=C\C[C@@H]1COC(c2coc3ccc(Cl)cc3c2=O)O[C@@H]1c1ccccc1O` (stereo partly drawn) [compound 13], in test [1], the “PPAR gamma modulating activity, in words” value is on record as “higher potency”. In addition, in the test on 3T3-L1 / MEFs, the Adip. is recorded as −1 and the “induction of adipocyte differentiation (red staining), in words” value was “low or no adipocyte differentiation”.
As for `CC(C)(Sc1ccc(CCN(CCCCC2CCCCC2)C(=O)NC2CCCCC2)cc1)C(=O)O` [GW7647, reference compound], at mPPARalphaLBD, the “increase of PPAR alpha transactivation” value was “over 2 fold”.
Consider `COc1ccc(Oc2ccccc2C2OC[C@@H](C/C=C\CCC(=O)O)[C@@H](c3ccccc3O)O2)cc1` (mixture of isomers) [compound 7], for which, in test [1], the “PPAR gamma modulating activity, in words” value was “higher potency”. Besides, in the test with 3T3-L1 / MEFs, the Adip. is 0 and the “induction of adipocyte differentiation (red staining), in words” value is reported as “low or no adipocyte differentiation”.
Turning to `O=C(O)CC/C=C\C[C@@H]1COC2(CCCCC2)O[C@@H]1c1ccccc1O` [compound 6], the Adip. with 3T3-L1 / MEFs worked out at 0.
`O=C(O)CC/C=C\C[C@@H]1COC(c2cccc(Cl)c2Cl)O[C@@H]1c1ccccc1O` (stereo partly drawn) [compound 2] had an Adip. in the test with 3T3-L1 / MEFs of 0.
As for `COc1ccccc1[C@H]1O[C@@H](c2c(Cl)cccc2Cl)OC[C@H]1C/C=C\CCC(=O)O` [compound 28], in test [1], the PPAR entry is recorded as “Inactive”.
Regarding `O=C(O)CC/C=C\C[C@@H]1COC2(CCNCC2)O[C@@H]1c1ccccc1O` [compound 8], the PPAR entry in test [1] is listed as “Boc derivative Inactive”. Also, the Adip. with 3T3-L1 / MEFs is −1.
In the test with 3T3-L1 / MEFs, `O=C(O)CC/C=C\C[C@@H]1CO[C@H](C2CCCCC2)O[C@@H]1c1ccccc1O` [compound 21] registered an Adip. of 0.
